{"source": "patent US20070065850A1", "about": "“Method for diagnosis of heart failure” (OSAKA UNIVERSITY, priority 2005, published 2007)", "key": {"[1]": {"tested_on": "cultured neonatal rat cardiac myocytes", "assay": "CHOP expression by real-time quantitative RT-PCR after treatment with pharmacological ER stress inducers", "assay_type": "cell-based", "conditions": "for CHOP/GAPDH: cultured cardiac myocytes 48 hours after treatment with ER stress inducer, untreated 1.0, mean±SEM", "experimental": "Primary cultures of cardiac myocytes were prepared from neonatal rat hearts as described previously (13). All procedures were performed in accordance with the guidline of Osaka University School of Medicine with regard to animal care and the “Position of the American Heart Association on Research Animal Use.”\n(§1) RT-PCR of human and rat heart samples was performed according to the Omniscript Reverse Transcription handbook (QIAGEN Inc.). The human and rat primers and probes used for quantification of BNP, GRP78, CHOP, and GAPDH were all designed according to the manufacturer's protocol (Applied Biosystems, https://www.appliedbiosystems.com/catalog/). Real-time quantitative RT-PCR was performed with an ABI PRISM 7700 Sequence Detection System (Applied Biosystems) by the relative standard curve method. The target amount was determined from the relative standard curves constructed with serial dilutions of the control total RNA."}, "cardiac myocytes": {"tested_on": "cardiac myocytes", "assay": "MTT assay (cell viability)", "assay_type": "cell-based, rat", "conditions": "tunicamycin for 48 hours", "experimental": "Cardiac myocytes were treated with tunicamycin for 48 hours, after which cell viability was assessed by MTT assay according to the manufacturer's instructions (Cell Counting Kit-8, Wako Pure Chemical Industries, Ltd.). The percentage of viable cells was determined by taking the value for untreated cells as 100%.\n(§2) The inventors designed 3 different short interfering RNAs (siRNA) with 3′ dTdT overhangs to knock down CHOP mRNA (CHOP siRNA-1: 5′-CCUUCACUACUCUUGACCC-3′ (SEQ ID NO. 1), siRNA-2: 5′-GAUCAAGGAAGAACUAGGA-3′ (SEQ ID NO. 2), siRNA-3: 5′-GGAGCAGGAGAAUGAGAGG-3′(SEQ ID NO. 3) and ordered Dharmacon Inc. to synthesize them. After rat cardiac myocytes were isolated, they were incubated in Dulbecco's modified Eagle's medium (Invitrogen Corporation) Opti-MEM (Invitrogen Corporation), siRNA oligonucleotides (CHOP siRNA 1-3) (60 nM) and Optifect (Invitrogen Corporation) were added on the day of cardiac myocyte isolation. As a negative control, cells were transfected with siRNA against firefly luciferase from Photinus pyralis (GL2 siRNA) (15). Messenger RNA and protein levels of CHOP were measured 24 and 48 hrs after the transfection of CHOP siRNA, respectively."}, "CHOP mRNA": {"tested_on": "CHOP mRNA", "assay": "CHOP mRNA knockdown by siRNA transfection (RNA interference), real-time quantitative RT-PCR", "assay_type": "cell-based, rat", "conditions": "siRNA 60 nM, mean±SEM", "experimental": "as §1\nas §2, with “As a negative control, cells were transfected with siRNA against firefly luciferase from Photinus pyralis (GL2 siRNA) (15).” left out, “respectively. […]” for “respectively.”"}, "[2]": {"tested_on": "neonatal rat cardiac myocytes", "assay": "Apoptotic cell assay (TUNEL)", "assay_type": "cell-based", "experimental": "The terminal deoxynucleotidyl transferase-mediated dUTP nick end labeling (TUNEL) assay was performed as described previously (7). Forty eight hours after the treatment of neonatal rat cardiac myocytes with tunicamycin (Sigma-Aldrich), cells were subjected to TUNEL staining. The TUNEL-positive cardiac myocytes counted in DAPI-positive cardiac myocytes (n=100, 5 times) were expressed as a percentage.\nas §2"}, "CHOP": {"tested_on": "CHOP", "assay": "CHOP protein level by immunoblotting after siRNA transfection", "assay_type": "cell-based, rat", "conditions": "cardiac myocytes treated with tunicamycin; protein measured 48 hrs after transfection; actin internal control", "experimental": "Immunoblotting was performed as described previously (13). Primary antibodies targeting CHOP (sc-793) and actin (sc-1615) were purchased from Santa Cruz Biotechnology. Forty eight hours after the treatment of neonatal rat cardiac myocytes with tunicamycin (Sigma-Aldrich), cardiac myocytes were harvested.\nas §2"}}, "note": "d = 2'-deoxy (DNA)", "data": [{"compound": "C[C@H]1CCC/C=C/[C@@H]2C[C@H](O)C[C@H]2[C@H](O)/C=C/C(=O)O1", "note": "[brefeldin A]", "values": [{"measurement": "CHOP/GAPDH", "setting": "[1]", "result": "8.1±0.7"}]}, {"compound": "C/C=C(/C)C(=O)O[C@H]1C(C)=C2[C@H]([C@@H]1OC(=O)CCCCCCC)[C@@](C)(OC(C)=O)C[C@H](OC(=O)CCC)[C@@]1(O)[C@H]2OC(=O)[C@@]1(C)O", "note": "[thapsigargin]", "values": [{"measurement": "CHOP/GAPDH", "setting": "[1]", "result": "19.0±0.3"}]}, {"compound": "CHOP siRNA-2: siRNA with 3′ dTdT overhangs to knock down CHOP mRNA: 5′-GAUCAAGGAAGAACUAGGA-3′ (SEQ ID NO. 2) (RNA, 3' dTdT, backbone not given here)", "values": [{"measurement": "Effect of siRNA on the tunicamycin-induced decrease of cell viability", "setting": "cardiac myocytes; siRNA 60 nM", "result": "attenuated"}, {"measurement": "CHOP/GAPDH after transfection of siRNA, induction by brefeldin A", "setting": "CHOP mRNA; brefeldin A alone 8.1±0.7", "result": "2.2±0.8"}, {"measurement": "CHOP/GAPDH after transfection of siRNA, induction by thapsigargin", "setting": "CHOP mRNA; thapsigargin alone 19.0±0.3", "result": "2.1±1.0"}, {"measurement": "Effect of siRNA on the tunicamycin-induced increase of TUNEL-positive cardiac myocytes", "setting": "[2]; tunicamycin 48 hours, siRNA 60 nM", "result": "attenuated"}, {"measurement": "protein level of CHOP after transfection of siRNA", "setting": "CHOP", "result": "almost completely suppressed"}]}, {"compound": "tunicamycin", "values": [{"measurement": "Cell viability (MTT assay)", "setting": "cardiac myocytes; untreated cells as 100%", "result": "decreased"}, {"measurement": "Number of TUNEL-positive cardiac myocytes", "setting": "[2]; 48 hours after treatment with tunicamycin, vs. no treatment", "result": "increased"}, {"measurement": "CHOP expression (real-time quantitative RT-PCR)", "setting": "[1]; cultured neonatal rat cardiac myocytes treated with tunicamycin, normalized for GAPDH, compared with 0 hour", "result": "increase"}]}]}
